{
  "source": "patent US12534444B2",
  "about": "“Treatment of cancer/inhibition of metastasis” (Celex Oncology Innovations Limited, priority 2010, dated 2026)",
  "key": {"MDA-MB-231 cells [1]": {"test_system": "MDA-MB-231 cells", "assay": "Transverse migration assay (Transwell)", "assay_type": "cell-based, human", "experimental": "This assay was used to represent the ability of cells to migrate as they intra/extravasate. […] The insert 602 has a migration filter membrane 605 in its base with 8 μm pores 606 extending therethrough.\nCells 607 were plated at a density of 2×10^4/ml on the filter membrane 605 and placed under a growth medium 608 containing 1% foetal bovine serum (FBS). A chemotactic gradient was created across the filter membrane 605 by placing growth medium 609 containing 10% FBS in the lower section 604 of the chamber.\nCells were allowed to migrate across the filter membrane 605 over a period of 24 hours, cells migrating and adhering to the underside of the filter membrane 605.\nAt the end of each assay, non-migrated cells were removed from the upper surface of the insert 602 with two different swabs\n(§1) The number of cells migrating to the underside of the insert 602 was determined using crystal violet staining. Migrated cells were fixed for 15 minutes with ice-cold methanol. Then 0.5% crystal violet (in 25% methanol) was added for 15 minutes. The inserts were swabbed again and then washed in water and allowed to dry. Cells were then counted using twelve separate fields of view per insert (×200 magnification).\n(§2) With the exception of single cell adhesion tests, which are discussed in the following paragraph, experiments were carried out under either; • (i) normal normoxic conditions ([…], 5% carbon dioxide), or • (ii) following 24 hours hypoxic pre-treatment (2% O2, 5% CO2, 93% N2) continued during the assays."}, "MDA-MB-231 cells [2]": {"test_system": "MDA-MB-231 cells", "assay": "Cell growth (proliferation) assay (MTT)", "assay_type": "cell-based, human", "details": "Normoxia", "experimental": "(§3) Cells were plated at 2×10^4 cells/ml in 24-well plates (Becton-Dickinson) and allowed to settle overnight. The cells were then treated for the required time of incubation (24 hours+), with medium changes every 24 hours. At the end of the treatment, the medium was removed, and this was followed by the colorimetric 3-[4,5-dimethylthiazol-2-yl]-2,5-diphenyltetrazolium bromide (MTT) assay (Grimes et al., 1995). Briefly, 0.1 ml MTT (5 mg/ml made up in the growth medium) and 0.4 ml growth medium was added in each well and the plate was incubated for 3-4 hours at 37° C. The medium was then removed from the chambers and replaced with 0.5 ml dimethyl sulfoxide (DMSO) and 0.063 ml glycine buffer (0.1 M glycine and 0.1 M NaCl; pH 10.5). Absorbance at 570 nm was determined 15 minutes after the addition of the glycine buffer. Results were calculated as means of nine repeats of each of the treatment vs. control spectrophotometer readings from individual invasion wells.\nas §2"}, "Mat-LyLu cells [3]": {"test_system": "Mat-LyLu cells", "assay": "Invasion assay (Matrigel Transwell)", "assay_type": "cell-based, rat", "source_text": "This assay is an extension of the transverse migration assay described above. To “invade”, the cells need both (i) to move as in the transverse migration assay and (ii) secrete a proteolytic enzyme to digest their surroundings. The ability of cells to invade neighbouring tissues by enzyme secretion was therefore assessed by using a layer of Matrigel™ (BD Biosciences) spread across the porous membrane of a Transwell® insert.\nFIG. 7 is a schematic side sectional view of an invasion chamber 701 having a Transwell® insert 702 separating the chamber into upper 703 and lower 704 sections. The insert 702 has a migration filter membrane 705 in its base with 8 μm pores 706 extending therethrough. A layer 707 of Matrigel™ is shown coating the filter membrane 705.\nCells 708 were plated at a density of 2×10^4/ml onto the Matrigel™ layer 707 in 24-well plates (Becton-Dickinson) according to the manufacturers' instructions. 50 μl Matrigel™ was seeded at a 1:7 dilution (10 mg/ml stock) onto the inserts and left overnight. Prior to seeding with the cells the Matrigel™ was rehydrated using medium with no additions. This medium was removed prior to seeding the cells.\nCells were plated in a 1-5% FBS chemotactic gradient overnight (12 hours). The nutrient concentration in the medium 709 in the upper section 703 of the chamber was less than the concentration of nutrient in the medium 710 in the lower section 704 to induced movement of the cells through the Matrigel™ layer 707 and through the pores 706 to the underside of the filter membrane 705. At the end of each assay, non-invaded/non-migrated cells were removed from the upper surface of the insert 702 with two different swabs.\nas §1, with “invading” for “migrating”, “702” for “602”, “Invaded” for “Migrated”, “magnification). If the difference in the average number of cells invading the two control inserts was more than 40%, the experiment was rejected.” for “magnification).”\nas §2"}, "Mat-LyLu cells [4]": {"test_system": "Mat-LyLu cells", "assay": "Cell growth (proliferation) assay (MTT)", "assay_type": "cell-based, rat", "experimental": "as §3, §2"}, "Mat-LyLu cells [5]": {"test_system": "Mat-LyLu cells", "assay": "Cell viability assay (trypan blue)", "assay_type": "cell-based, rat", "experimental": "Cells were seeded at a density of 5×10^4 cells/ml in 35 mm Falcon tissue culture dishes. After treatment with a given drug, the medium was removed and replaced with 800 μl of growth medium and 200 μl 0.4% trypan blue (Sigma, Dorset, UK) and incubated for 10 minutes in the incubator. The trypan blue was removed and the cells were washed once with 3 ml growth medium. For each treatment, cells from 30 random fields of view were counted under 100× magnification. The number of dead cells, stained blue, was counted in each field of view. The data were expressed as percentages of living cells out of the total number of cells in given fields of view. The percentages were averaged and differences between control and treatment were compared from at least three independent experiments.\nas §2"}, "[6]": {"details": "Hypoxia, 1 μM, listed as RILUZOLE"}, "[7]": {"details": "Normoxia, 1 μM, listed as RILUZOLE"}},
  "data": [
    {"molecule": "Nc1nc2ccc(OC(F)(F)F)cc2s1", "note": "[riluzole]", "values": [
      {"measurement": "TRANSVERSE MIGRATION", "setting": "MDA-MB-231 cells [1]; Hypoxia, 1 μM", "result": "reduced the transverse migration in a statistically significant way"},
      {"measurement": "TRANSVERSE MIGRATION", "setting": "MDA-MB-231 cells [1]; [6]", "result": "decreased"},
      {"measurement": "TRANSVERSE MIGRATION", "setting": "MDA-MB-231 cells [1]; Hypoxia, 10 μM", "result": "reduced the transverse migration in a statistically significant way"},
      {"measurement": "TRANSVERSE MIGRATION", "setting": "MDA-MB-231 cells [1]; Hypoxia, 10 μM, listed as RILUZOLE", "result": "decreased"},
      {"measurement": "TRANSVERSE MIGRATION", "setting": "MDA-MB-231 cells [1]; Hypoxia, 100 μM", "result": "reduced the transverse migration in a statistically significant way"},
      {"measurement": "TRANSVERSE MIGRATION", "setting": "MDA-MB-231 cells [1]; Hypoxia, 100 μM, listed as RILUZOLE", "result": "decreased"},
      {"measurement": "TRANSVERSE MIGRATION", "setting": "MDA-MB-231 cells [1]; Normoxia, 1 μM", "result": "reduced the transverse migration of the cells in a statistically significant way"},
      {"measurement": "TRANSVERSE MIGRATION", "setting": "MDA-MB-231 cells [1]; [7]", "result": "decreased"},
      {"measurement": "TRANSVERSE MIGRATION", "setting": "MDA-MB-231 cells [1]; Normoxia, 10 μM", "result": "no effect"},
      {"measurement": "TRANSVERSE MIGRATION", "setting": "MDA-MB-231 cells [1]; Normoxia, 100 μM", "result": "reduced the transverse migration of the cells in a statistically significant way"},
      {"measurement": "TRANSVERSE MIGRATION", "setting": "MDA-MB-231 cells [1]; Normoxia, 100 μM, listed as RILUZOLE", "result": "decreased"},
      {"measurement": "PROLIFERATION (24 hours)", "setting": "MDA-MB-231 cells [2]; 1 μM", "result": "no effect"},
      {"measurement": "PROLIFERATION (24 hours)", "setting": "MDA-MB-231 cells [2]; 10 μM", "result": "no effect"},
      {"measurement": "PROLIFERATION (24 hours)", "setting": "MDA-MB-231 cells [2]; 100 μM", "result": "reduced the proliferation of the cells in a statistically significant way"},
      {"measurement": "PROLIFERATION (24 hours)", "setting": "MDA-MB-231 cells [2]; 100 μM, listed as RILUZOLE", "result": "tail off"},
      {"measurement": "growth (number of cells)", "setting": "MDA-MB-231 cells [2]; 100 μM, 48 hours", "result": "reduced the proliferation of the cells in a statistically significant way"},
      {"measurement": "INVASIVENESS (no pretreatment)", "setting": "Mat-LyLu cells [3]; [6]", "result": "decreased"},
      {"measurement": "INVASIVENESS (no pretreatment)", "setting": "Mat-LyLu cells [3]; Hypoxia, 1 μM, listed as Riluzole", "result": "significantly inhibited invasiveness"},
      {"measurement": "INVASIVENESS (no pretreatment)", "setting": "Mat-LyLu cells [3]; Hypoxia, 2.5 μM", "result": "decreased"},
      {"measurement": "INVASIVENESS (no pretreatment)", "setting": "Mat-LyLu cells [3]; Hypoxia, 5 μM", "result": "decreased"},
      {"measurement": "INVASIVENESS (no pretreatment)", "setting": "Mat-LyLu cells [3]; [7]", "result": "decreased"},
      {"measurement": "INVASIVENESS (no pretreatment)", "setting": "Mat-LyLu cells [3]; Normoxia, 1 μM, listed as Riluzole", "result": "significantly inhibited invasiveness"},
      {"measurement": "INVASIVENESS (no pretreatment)", "setting": "Mat-LyLu cells [3]; Normoxia, 2.5 μM", "result": "decreased"},
      {"measurement": "INVASIVENESS (no pretreatment)", "setting": "Mat-LyLu cells [3]; Normoxia, 5 μM", "result": "decreased"},
      {"measurement": "cell proliferation with increasing concentration", "setting": "Mat-LyLu cells [4]; 3 μM, 5 μM, 10 μM and 30 μM, 24 hours, normoxia and hypoxia (2% O2)", "result": "decreased cell proliferation dose dependently under both normoxia and hypoxia; the effect was greater under hypoxia"},
      {"measurement": "PROLIFERATION (24 hours)", "setting": "Mat-LyLu cells [4]; Hypoxia, 3 μM", "result": "no effect"},
      {"measurement": "PROLIFERATION (24 hours)", "setting": "Mat-LyLu cells [4]; Hypoxia, 5 μM", "result": "tail off"},
      {"measurement": "PROLIFERATION (24 hours)", "setting": "Mat-LyLu cells [4]; Hypoxia, 10 μM", "result": "tail off"},
      {"measurement": "PROLIFERATION (24 hours)", "setting": "Mat-LyLu cells [4]; Hypoxia, 30 μM", "result": "tail off"},
      {"measurement": "PROLIFERATION (24 hours)", "setting": "Mat-LyLu cells [4]; Normoxia, 3 μM", "result": "no effect"},
      {"measurement": "PROLIFERATION (24 hours)", "setting": "Mat-LyLu cells [4]; Normoxia, 5 μM", "result": "tail off"},
      {"measurement": "PROLIFERATION (24 hours)", "setting": "Mat-LyLu cells [4]; Normoxia, 10 μM", "result": "tail off"},
      {"measurement": "PROLIFERATION (24 hours)", "setting": "Mat-LyLu cells [4]; Normoxia, 30 μM", "result": "tail off"},
      {"measurement": "CELL VIABILITY", "setting": "Mat-LyLu cells [5]; Hypoxia, 1 μM", "result": "no effect"},
      {"measurement": "CELL VIABILITY", "setting": "Mat-LyLu cells [5]; Hypoxia, 10 μM, 24 h", "result": "no effect"},
      {"measurement": "CELL VIABILITY", "setting": "Mat-LyLu cells [5]; Hypoxia, 10 μM, 24 h, listed as RILUZOLE", "result": "cell death"},
      {"measurement": "CELL VIABILITY", "setting": "Mat-LyLu cells [5]; Hypoxia, 30 μM, 24 h", "result": "no effect"},
      {"measurement": "CELL VIABILITY", "setting": "Mat-LyLu cells [5]; Hypoxia, 30 μM, 24 h, listed as RILUZOLE", "result": "cell death"},
      {"measurement": "CELL VIABILITY", "setting": "Mat-LyLu cells [5]; Hypoxia, 100 μM, 24 h", "result": "no effect"},
      {"measurement": "CELL VIABILITY", "setting": "Mat-LyLu cells [5]; Hypoxia, 100 μM, 24 h, listed as RILUZOLE", "result": "cell death"},
      {"measurement": "CELL VIABILITY", "setting": "Mat-LyLu cells [5]; Normoxia, 10 μM, 24 h", "result": "no effect"},
      {"measurement": "CELL VIABILITY", "setting": "Mat-LyLu cells [5]; Normoxia, 30 μM, 24 h", "result": "no effect"},
      {"measurement": "CELL VIABILITY", "setting": "Mat-LyLu cells [5]; Normoxia, 100 μM, 24 h", "result": "no effect"}
    ]}
  ]
}
